Assay results reported in patent publication US11542508B2, “Isolated polynucleotides and polypeptides and methods of using same for expressing an expression product of interest” (priority 2016, dated 2023).

Tests used:
[1] = test system: phi3T; experiment: Growth dynamics of phage-infected cultures (phi3T infection of B. subtilis 168); format: cell-based
Procedure: Specifically, overnight cultures of B. subtilis strain 168 were diluted 1:50 in LB media supplemented with 0.1 mM MnCl2 and 5 mM MgCl2, and incubated at 37° C. with shaking until reaching optical density (O.D) 600 nm=0.5. Phages (phi29, phi105, rho14 or phi3T) were added to the bacterial culture at MOI=1 and incubated for 3 hours. The media were centrifuged at 4000 rpm for 10 minutes at 4° C. and the supernatant was filtered with 0.2 μm filer (GE Healthcare Life Sciences, Whatman, CAT #10462200). Phages and large molecules were further filtered out from the media by using Amicon Ultra centrifugal filters at a cutoff of 3,000 NMWL (3 kDa) (Milipore, CAT #UFC900324). A plaque assay was performed in order to verify that no phages were left in the medium.
7.5 mg (per reaction) of Proteinase K-Agarose from Tritirachium album (Sigma, CAT #P9290) were washed twice with 750 μl of sterile water and then resuspended with 750 μl of LB supplemented with 0.1 mM MnCl2 and 5 mM MgCl2. Following, the tubes were centrifuged again and the supernatant was discarded. 1.5 ml of phi3T-derived conditioned medium or control medium was added to a tube containing the washed proteinase K. The media were incubated for 2 hours at 37° C. with the proteinase K. The media were centrifuged and the supernatants were collected for the infection assay.
(§1) Overnight cultures of bacteria were diluted 1:100 in LB media and incubated at 37° C. with shaking until reaching O.D 600 nm=0.1. The bacterial culture was centrifuged at 4000 rpm for 10 minutes at room temperature. The supernatant was discarded and the pellet was resuspended in LB medium supplemented with 0.1 mM MnCl2 and 5 mM MgCl2 at 10% of the initial volume. The concentrated bacterial culture was added to conditioned medium or medium supplemented with synthesized arbitrium peptide in a ratio of 1:9 (bacteria to medium) and incubated for 1 hour at room temperature. Following, the culture was infected with phages at MOI=0.1. Optical density measurements at a wavelength of 600 nm were taken using a TECAN Infinite 200 plate reader in a 96-wells plate.

[2] = test system: spBeta; experiment: Growth dynamics of phage-infected cultures (spBeta infection of B. subtilis BEST7003); format: cell-based; conditions: B. subtilis BEST7003 infected by spBeta at MOI=0.1, LB supplemented with synthesized peptide
Procedure: as §1

[3] = biological target: AimR (Bacillus phage phi3T, UniProt P0DOE3); experiment: Analytical gel filtration of purified AimR (oligomeric state); design: made in house; host or cells: E. coli BL21(DE3), pET28a; conditions: AimR:SAIRGA 1:2, AimR:GMPRGA 1:1 molar ratio
Chain of AimR (P0DOE3 whole entry): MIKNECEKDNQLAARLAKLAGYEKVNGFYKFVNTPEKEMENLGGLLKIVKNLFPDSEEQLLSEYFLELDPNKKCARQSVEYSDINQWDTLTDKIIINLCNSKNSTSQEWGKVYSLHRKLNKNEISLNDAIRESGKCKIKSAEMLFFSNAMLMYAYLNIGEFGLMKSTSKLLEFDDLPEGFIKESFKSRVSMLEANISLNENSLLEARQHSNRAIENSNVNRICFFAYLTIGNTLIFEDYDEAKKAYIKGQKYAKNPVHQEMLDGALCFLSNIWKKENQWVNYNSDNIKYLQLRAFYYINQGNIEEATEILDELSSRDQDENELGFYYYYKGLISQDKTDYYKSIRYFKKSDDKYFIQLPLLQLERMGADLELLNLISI
Procedure: Following, AimR was expressed in E. coli BL21(DE3) cells with a C-terminal 6× His-tag. Expression was performed at 15° C. for about ˜18 hours using 200 μM IPTG (Isopropyl β-D-1-thiogalactopyranoside) as an inducer. The cells pellet was resuspended in lysis buffer [50 mM Tris pH 8, 0.3M NaCl, 20 mM Imidazole, 2 mM DTT, 0.2 mg/ml Lysozyme, 1 μg/ml DNAse, protease inhibitor cocktail (Calbiochem)], disrupted by a cell disrupter at 4° C. and clarified at 15,000 g for 30 minutes. The clarified lysate was loaded onto a HisTrap_FF_5 ml column (GE Healthcare) and washed with buffer containing 50 mM Tris pH 8, 0.3 M NaCl, 20 mM imidazole and 2 mM DTT. AimR was eluted from the column in one step with the same buffer containing 0.5 M imidazole. Fractions containing AimR were pooled and injected to a size exclusion column (HiLoad_16/60_Superdex_200_prepgrade,GE_Healthcare) equilibrated with 20 mM Tris pH 8, 0.3 M NaCl, 2 mM TCEP. Fractions containing pure AimR were pooled and flash frozen in aliquots using liquid nitrogen.
Pure AimR was injected to an analytical gel filtration column (Superdex_200_Increase_10/30 GL, GE Healthcare) equilibrated with buffer containing 20 mM Tris pH 8, 0.3 M NaCl, 2 mM TCEP. […]

SMILES: CC[C@H](C)[C@H](NC(=O)[C@H](C)NC(=O)[C@@H](N)CO)C(=O)N[C@@H](CCCNC(=N)N)C(=O)NCC(=O)N[C@@H](C)C(=O)O [SAIRGA, Ser-Ala-Ile-Arg-Gly-Ala]
- effect on the phage infection dynamics (culture lysis, growth curve) ([1]; B. subtilis 168 infected by phi3T at MOI=0.1, LB supplemented with synthesized peptide): reduced culture lysis
- peptide concentration of maximal effect on the culture growth curve ([1]; B. subtilis 168 infected by phi3T at MOI=0.1, effect saturated above): 500 nM
- effect on lysogeny / infection dynamics of spBeta [2]: had no effect on the infection dynamics of spBeta
- AimR oligomeric state (migration in gel filtration column) [3]: strictly migrated as a monomer
